Measured values published in PubChem BioAssay AID1918943 (Molecular Pharmacology Branch, DTP, NCI, 2023).
Where “and” joins values, the source holds several entries; their conditions need not be identical. Equal values may be shown once.

System: 855422-203-R-J1-PDC complex spheroid viability
Experiment: Anticancer human tumor 855422-203-R-J1-PDC patient-derived bladder carcinoma cell line growth inhibition
Conditions: for viability, T/C: stronger effect = lower value
In short: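 Complex spheroids of tumor cells with HUVEC and human MSCs, exposed to iadademstat combined with other agents. Each agent tested in half-log steps from near clinical Cmax (else 10 microM top), DMSO ≤0.25%.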

[1] = curve of first compound, second compound 0.1 µM
[2] = curve of first compound, second compound 0.316 µM
[3] = curve of first compound, second compound 1 µM
[4] = curve of first compound, second compound 3.16 µM
[5] = curve of first compound, second compound 10 µM
[6] = second compound 0.1 µM, first compound 0.00949 µM
[7] = second compound 0.1 µM, first compound 0.03 µM
[8] = second compound 0.1 µM, first compound 0.0949 µM
[9] = second compound 0.1 µM, first compound 0.3 µM
[10] = second compound 0.1 µM, first compound 0.949 µM
[11] = second compound 0.1 µM, first compound 3 µM
[12] = second compound 0.316 µM, first compound 0.00949 µM
[13] = second compound 0.316 µM, first compound 0.03 µM
[14] = second compound 0.316 µM, first compound 0.0949 µM
[15] = second compound 0.316 µM, first compound 0.3 µM
[16] = second compound 0.316 µM, first compound 0.949 µM
[17] = second compound 0.316 µM, first compound 3 µM
[18] = second compound 1 µM, first compound 0.00949 µM
[19] = second compound 1 µM, first compound 0.03 µM
[20] = second compound 1 µM, first compound 0.0949 µM
[21] = second compound 1 µM, first compound 0.3 µM
[22] = second compound 1 µM, first compound 0.949 µM
[23] = second compound 1 µM, first compound 3 µM
[24] = second compound 3.16 µM, first compound 0.00949 µM
[25] = second compound 3.16 µM, first compound 0.03 µM
[26] = second compound 3.16 µM, first compound 0.0949 µM
[27] = second compound 3.16 µM, first compound 0.3 µM
[28] = second compound 3.16 µM, first compound 0.949 µM
[29] = second compound 3.16 µM, first compound 3 µM
[30] = second compound 10 µM, first compound 0.00949 µM
[31] = second compound 10 µM, first compound 0.03 µM
[32] = second compound 10 µM, first compound 0.0949 µM
[33] = second compound 10 µM, first compound 0.3 µM
[34] = second compound 10 µM, first compound 0.949 µM
[35] = second compound 10 µM, first compound 3 µM
[36] = second compound 0.1 µM, first compound 0.00316 µM
[37] = second compound 0.1 µM, first compound 0.01 µM
[38] = second compound 0.1 µM, first compound 0.0316 µM
[39] = second compound 0.1 µM, first compound 0.1 µM
[40] = second compound 0.316 µM, first compound 0.00316 µM
[41] = second compound 0.316 µM, first compound 0.01 µM
[42] = second compound 0.316 µM, first compound 0.0316 µM
[43] = second compound 0.316 µM, first compound 0.1 µM
[44] = second compound 1 µM, first compound 0.00316 µM
[45] = second compound 1 µM, first compound 0.01 µM
[46] = second compound 1 µM, first compound 0.0316 µM
[47] = second compound 1 µM, first compound 0.1 µM
[48] = second compound 3.16 µM, first compound 0.00316 µM
[49] = second compound 3.16 µM, first compound 0.01 µM
[50] = second compound 3.16 µM, first compound 0.0316 µM
[51] = second compound 3.16 µM, first compound 0.1 µM
[52] = second compound 10 µM, first compound 0.00316 µM
[53] = second compound 10 µM, first compound 0.01 µM
[54] = second compound 10 µM, first compound 0.0316 µM
[55] = second compound 10 µM, first compound 0.1 µM
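Further: drug exposure lasted 7 days starting on day 3 after seeding.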
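Wherever viability, T/C is given: luminescence viability as percent of DMSO vehicle wells = 100%.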

COc1cc(C2c3cc4c(cc3C(OC3OC5COC(C)OC5C(O)C3O)C3COC(=O)C23)OCO4)cc(OC)c1O (configuration not stated) + NC1CCC(NC2CC2c2ccccc2)CC1
IC50 [1]: 153 nM
IC50 [2]: 142 nM
IC50 [3]: 137 nM
IC50 [4]: 128 nM
IC50 [5]: 130 nM
viability, T/C [6]: 89.8%
viability, T/C [7]: 87.1%
viability, T/C [8]: 57.6%
viability, T/C [9]: 35.6%
viability, T/C [10]: 18.5%
viability, T/C [11]: 9.63%
viability, T/C [12]: 92%
viability, T/C [13]: 86.4%
viability, T/C [14]: 55.4%
viability, T/C [15]: 34.6%
viability, T/C [16]: 19.5%
viability, T/C [17]: 10.1%
viability, T/C [18]: 85.2%
viability, T/C [19]: 81.9%
viability, T/C [20]: 56.9%
viability, T/C [21]: 31.7%
viability, T/C [22]: 16.4%
viability, T/C [23]: 8.66%
viability, T/C [24]: 85%
viability, T/C [25]: 84.9%
viability, T/C [26]: 53.6%
viability, T/C [27]: 30.5%
viability, T/C [28]: 17%
viability, T/C [29]: 8.59%
viability, T/C [30]: 78.4%
viability, T/C [31]: 79.7%
viability, T/C [32]: 57.7%
viability, T/C [33]: 26.8%
viability, T/C [34]: 15.8%
viability, T/C [35]: 8.09%

CCc1c2c(nc3ccc(O)cc13)-c1cc3c(c(=O)n1C2)COC(=O)[C@]3(O)CC + NC1CC1c1ccc(-c2cccc(O)c2)cc1
IC50 [1]: < 0.949 nM
IC50 [2]: < 0.949 nM
IC50 [3]: < 0.949 nM
IC50 [4]: < 0.949 nM
IC50 [5]: < 0.949 nM
viability, T/C (second compound 0.1 µM, first compound 0.000949 µM): 20.8%
viability, T/C (second compound 0.1 µM, first compound 0.003 µM): 14.2%
viability, T/C [6]: 9.58%
viability, T/C [7]: 6.75%
viability, T/C [8]: 4.82%
viability, T/C [9]: 3.56%
viability, T/C (second compound 0.316 µM, first compound 0.000949 µM): 17.1%
viability, T/C (second compound 0.316 µM, first compound 0.003 µM): 15.1%
viability, T/C [12]: 10.9%
viability, T/C [13]: 6.65%
viability, T/C [14]: 4.88%
viability, T/C [15]: 2.78%
viability, T/C (second compound 1 µM, first compound 0.000949 µM): 15.7%
viability, T/C (second compound 1 µM, first compound 0.003 µM): 13%
viability, T/C [18]: 10.2%
viability, T/C [19]: 6.49%
viability, T/C [20]: 3.41%
viability, T/C [21]: 2.05%
viability, T/C (second compound 3.16 µM, first compound 0.000949 µM): 15.7%
viability, T/C (second compound 3.16 µM, first compound 0.003 µM): 13.7%
viability, T/C [24]: 9.86%
viability, T/C [25]: 6.91%
viability, T/C [26]: 4.7%
viability, T/C [27]: 2.44%
viability, T/C (second compound 10 µM, first compound 0.000949 µM): 17.6%
viability, T/C (second compound 10 µM, first compound 0.003 µM): 12.6%
viability, T/C [30]: 8.31%
viability, T/C [31]: 5.99%
viability, T/C [32]: 2.54%
viability, T/C [33]: 1.14%

CC(C)CC(NC(=O)CNC(=O)c1cc(Cl)ccc1Cl)B1OC(=O)CC(CC(=O)O)(C(=O)O)O1 (configuration not stated) + NC1CCC(NC2CC2c2ccccc2)CC1
IC50 [1]: 1.8 nM
IC50 [2]: 1.7 nM
IC50 [3]: 1.67 nM
IC50 [4]: 1.63 nM
IC50 [5]: 1.52 nM
viability, T/C (second compound 0.1 µM, first compound 0.000316 µM): 95.9%
viability, T/C (second compound 0.1 µM, first compound 0.001 µM): 89.3%
viability, T/C [36]: 12.2%
viability, T/C [37]: 1.62%
viability, T/C [38]: 0.03%
viability, T/C [39]: 0.09%
viability, T/C (second compound 0.316 µM, first compound 0.000316 µM): 100%
viability, T/C (second compound 0.316 µM, first compound 0.001 µM): 90.4%
viability, T/C [40]: 3.11%
viability, T/C [41]: 1.91%
viability, T/C [42]: 0.02%
viability, T/C [43]: 0.09%
viability, T/C (second compound 1 µM, first compound 0.000316 µM): 91.9%
viability, T/C (second compound 1 µM, first compound 0.001 µM): 87%
viability, T/C [44]: 3.87%
viability, T/C [45]: 0.69%
viability, T/C [46]: 0.02%
viability, T/C [47]: 0.1%
viability, T/C (second compound 3.16 µM, first compound 0.000316 µM): 89.8%
viability, T/C (second compound 3.16 µM, first compound 0.001 µM): 85.3%
viability, T/C [48]: 2.25%
viability, T/C [49]: 0.69%
viability, T/C [50]: 0.04%
viability, T/C [51]: 0.1%
viability, T/C (second compound 10 µM, first compound 0.000316 µM): 77.6%
viability, T/C (second compound 10 µM, first compound 0.001 µM): 76.9%
viability, T/C [52]: 2.8%
viability, T/C [53]: 0.29%
viability, T/C [54]: 0.12%
viability, T/C [55]: 3.15%

CC[C@@]1(O)C(=O)OCc2c1cc1n(c2=O)Cc2cc3c(CN(C)C)c(O)ccc3nc2-1
viability, T/C (compound 0.000316 µM): 90.1% and 96.8%
viability, T/C (compound 0.001 µM): 95.2% and 97.2%
viability, T/C (compound 0.00316 µM): 89.8% and 94.5%
viability, T/C (compound 0.01 µM): 35.8% and 39.8%
viability, T/C (compound 0.0316 µM): 25.6% and 21.1%
viability, T/C (compound 0.1 µM): 14.6% and 14.9%
IC50 (curve of compound): 7.4 nM and 8.07 nM

NS(=O)(=O)OCC1CC(n2ccc3c(NC4CCc5ccccc54)ncnc32)CC1O (configuration not stated) + NC1CC1c1ccc(-c2cccc(O)c2)cc1
IC50 [1]: 802 nM
IC50 [2]: 848 nM
IC50 [3]: 1140 nM
IC50 [4]: 769 nM
IC50 [5]: 532 nM
viability, T/C [6]: 102%
viability, T/C [7]: 112%
viability, T/C [8]: 115%
viability, T/C [9]: 105%
viability, T/C [10]: 40.5%
viability, T/C [11]: 12.2%
viability, T/C [12]: 100%
viability, T/C [13]: 113%
viability, T/C [14]: 114%
viability, T/C [15]: 105%
viability, T/C [16]: 44.1%
viability, T/C [17]: 13.4%
viability, T/C [18]: 108%
viability, T/C [19]: 115%
viability, T/C [20]: 98.7%
viability, T/C [21]: 102%
viability, T/C [22]: 56.8%
viability, T/C [23]: 13.9%
viability, T/C [24]: 99.7%
viability, T/C [25]: 114%
viability, T/C [26]: 102%
viability, T/C [27]: 105%
viability, T/C [28]: 37.7%
viability, T/C [29]: 14.1%
viability, T/C [30]: 95.4%
viability, T/C [31]: 99.5%
viability, T/C [32]: 93.8%
viability, T/C [33]: 69%
viability, T/C [34]: 30.5%
viability, T/C [35]: 10.9%

CC1COCCN1c1cc(-c2ccnn2C)c2ccnc(-c3ccn[nH]3)c2n1 (configuration not stated) + NC1CCC(NC2CC2c2ccccc2)CC1
IC50 [1]: 183 nM
IC50 [2]: 163 nM
IC50 [3]: 178 nM
IC50 [4]: 99.9 nM
IC50 [5]: 86.1 nM
viability, T/C [36]: 95.1%
viability, T/C [37]: 83.1%
viability, T/C [38]: 86.5%
viability, T/C [39]: 59.5%
viability, T/C (second compound 0.1 µM, first compound 0.316 µM): 41.5%
viability, T/C (second compound 0.1 µM, first compound 1 µM): 33%
viability, T/C [40]: 91.8%
viability, T/C [41]: 78.9%
viability, T/C [42]: 90.3%
viability, T/C [43]: 60%
viability, T/C (second compound 0.316 µM, first compound 0.316 µM): 39.5%
viability, T/C (second compound 0.316 µM, first compound 1 µM): 33%
viability, T/C [44]: 85%
viability, T/C [45]: 79.7%
viability, T/C [46]: 96.4%
viability, T/C [47]: 63.8%
viability, T/C (second compound 1 µM, first compound 0.316 µM): 38.7%
viability, T/C (second compound 1 µM, first compound 1 µM): 34%
viability, T/C [48]: 87.4%
viability, T/C [49]: 83.5%
viability, T/C [50]: 87.4%
viability, T/C [51]: 49.9%
viability, T/C (second compound 3.16 µM, first compound 0.316 µM): 32.5%
viability, T/C (second compound 3.16 µM, first compound 1 µM): 27.2%
viability, T/C [52]: 88%
viability, T/C [53]: 81.1%
viability, T/C [54]: 84%
viability, T/C [55]: 44.9%
viability, T/C (second compound 10 µM, first compound 0.316 µM): 33.2%
viability, T/C (second compound 10 µM, first compound 1 µM): 31.7%
